Patent publication US20240293558A1, “KRAS INHIBITOR CONJUGATES” (Erasca, Inc., priority 2021, published 2024)
pIC50: −log10 of the molar value.

Assays:
KRAS (WT) = target: T1, KRAS (WT) (Homo sapiens, UniProt P01116); assay: In-vitro RAS-RAF binding assay (RRB), HTRF/FRET; type: biochemical; details: Table 2, average of multiple runs of each compound; read-out: Inhibition of RAS-RAF Binding (in-vitro) KRAS (WT) IC50
T1 construct: Biotinylated KRAS protein amino acids 1-169 (produced at Erasca); made in house
T1 sequence (P01116 1-169 isoform P01116-2): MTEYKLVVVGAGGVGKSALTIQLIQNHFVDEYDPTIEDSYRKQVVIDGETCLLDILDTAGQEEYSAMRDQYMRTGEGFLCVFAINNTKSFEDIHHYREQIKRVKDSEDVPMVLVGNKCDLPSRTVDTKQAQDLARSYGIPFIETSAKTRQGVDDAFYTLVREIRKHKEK
Method: (§1) Biotinylated KRAS protein amino acids 1-169 (produced at […]) is labeled with streptavidin-terbium (lanthanide cryptate donor fluorophore) in assay buffer (50 mM HEPES, pH 7.5, 100 mM NaCl, 1 mM MgCl2, 1 mM DTT) at a final concentration of 30 nM. In a separate reaction mixture, 30 nM cRAF (RBD) (Abcam, Cambridge MA) is labeled with anti-GST d2 (acceptor fluorophore). Labeling reactions are incubated for 1 hour at room temperature. […] Following the compound incubation, SOS1 catalytic domain (produced at […]) and GTPgS are added to the reaction to initiate nucleotide exchange (60 minutes exchange reaction). Once in the GTP state KRAS will bind to cRAF. No binding will occur if KRAS remains in the GDP state. Compounds may block nucleotide exchange or may create a steric obstruction to cRAF-KRAS interaction by binding to the RAS effector site. […] A portion of this mixture is transferred to a white 384-well plate (20 uL per well in duplicate) and read on an HTRF compatible plate reader (ClarioSTAR). Fluorescent resonance energy transfer (FRET) is measured at equilibrium. FRET signal will be high if KRAS-cRAF binding occurs. FRET signal will be low if KRAS-cRAF binding is inhibited by the test compound. Table 2 represents the average of multiple runs of each compound.

KRAS G12D = KRAS G12D (Homo sapiens, UniProt P01116, G12D); assay: In-vitro RAS-RAF binding assay (RRB), HTRF/FRET; type: biochemical; design: Biotinylated KRAS protein amino acids 1-169 (produced at Erasca); made in house; details: Table 2, average of multiple runs of each compound; read-out: Inhibition of RAS-RAF Binding (in-vitro) KRAS (G12D) IC50
Chain of KRAS G12D (P01116 1-169 isoform P01116-2 G12D): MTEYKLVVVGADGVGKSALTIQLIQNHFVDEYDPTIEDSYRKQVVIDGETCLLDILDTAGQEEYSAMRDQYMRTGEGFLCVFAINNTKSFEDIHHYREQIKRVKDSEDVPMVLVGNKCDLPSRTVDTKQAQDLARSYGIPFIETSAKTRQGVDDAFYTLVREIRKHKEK
Method: as §1

| pIC50 (KRAS (WT)) | pIC50 (KRAS G12D) | SMILES |
| --- | --- | --- |
| 7.42 | 7.97 | C#Cc1c(F)ccc2cc(O)cc(-c3ncc4c(N5CC6CCC(C5)N6)nc(OC[C@@H]5CCCN5CCCOCCC(=O)N[C@H](C(=O)N5C[C@H](O)C[C@H]5C(=O)N[C@@H](C)c5ccc(-c6c(F)cncc6F)cc5)C(C)(C)C)nc4c3F)c12 [Example 27, (2S,4R)-1-((2S)-2-(3-(3-((2S)-2-(((4-(3,8-diazabicyclo[3.2.1]octan-3-yl)-7-(8-ethynyl-7-fluoro-3-hydroxynaphthalen-1-yl)-8-fluoropyrido[4,3-d]pyrimidin-2-yl)oxy)methyl)pyrrolidin-1-yl)propoxy)propanamido)-3,3-dimethylbutanoyl)-N—((S)-1-(4-(3,5-difluoropyridin-4-yl)phenyl)ethyl)-4-hydroxypyrrolidine-2-carboxamide] |
| 7.62 | 8.10 | C#Cc1c(F)ccc2cc(O)cc(-c3ncc4c(N5CC6CCC(C5)N6)nc(OC[C@@H]5CCCN5CCCOCCC(=O)N[C@H](C(=O)N5C[C@H](O)C[C@H]5C(=O)N[C@@H](C)c5ccc(-c6ccncc6C#N)cc5)C(C)(C)C)nc4c3F)c12 [Example 28, (2S,4R)-1-((2S)-2-(3-(3-((2S)-2-(((4-(3,8-diazabicyclo[3.2.1]octan-3-yl)-7-(8-ethynyl-7-fluoro-3-hydroxynaphthalen-1-yl)-8-fluoropyrido[4,3-d]pyrimidin-2-yl)oxy)methyl)pyrrolidin-1-yl)propoxy)propanamido)-3,3-dimethylbutanoyl)-N—((S)-1-(4-(3-cyanopyridin-4-yl)phenyl)ethyl)-4-hydroxypyrrolidine-2-carboxamide] |
| 7.55 | 8.03 | C#Cc1c(F)ccc2cc(O)cc(-c3ncc4c(N5CC6CCC(C5)N6)nc(OC[C@@H]5CCCN5CCCOCCC(=O)N[C@H](C(=O)N5C[C@H](O)C[C@H]5C(=O)N[C@@H](CO)c5ccc(-c6scnc6C)cc5)C(C)(C)C)nc4c3F)c12 [Example 29, (2S,4R)-1-((2S)-2-(3-(3-((2S)-2-(((4-(3,8-diazabicyclo[3.2.1]octan-3-yl)-7-(8-ethynyl-7-fluoro-3-hydroxynaphthalen-1-yl)-8-fluoropyrido[4,3-d]pyrimidin-2-yl)oxy)methyl)pyrrolidin-1-yl)propoxy)propanamido)-3,3-dimethylbutanoyl)-4-hydroxy-N—((R)-2-hydroxy-1-(4-(4-methylthiazol-5-yl)phenyl)ethyl)pyrrolidine-2-carboxamide] |
| 7.65 | 8.12 | C#Cc1c(F)ccc2cc(O)cc(-c3ncc4c(N5CC6CCC(C5)N6)nc(OC[C@@H]5CCCN5CCCOCCC(=O)N[C@H](C(=O)N5C[C@H](O)C[C@H]5C(=O)N[C@@H](C)c5ccc(-c6c(F)cccc6F)cn5)C(C)(C)C)nc4c3F)c12 [Example 30, (2S,4R)-1-((2S)-2-(3-(3-((2S)-2-(((4-(3,8-diazabicyclo[3.2.1]octan-3-yl)-7-(8-ethynyl-7-fluoro-3-hydroxynaphthalen-1-yl)-8-fluoropyrido[4,3-d]pyrimidin-2-yl)oxy)methyl)pyrrolidin-1-yl)propoxy)propanamido)-3,3-dimethylbutanoyl)-N—((S)-1-(5-(2,6-difluorophenyl)pyridin-2-yl)ethyl)-4-hydroxypyrrolidine-2-carboxamide] |
| 7.56 | 8.08 | C#Cc1c(F)ccc2cc(O)cc(-c3ncc4c(N5CC6CCC(C5)N6)nc(OC[C@@H]5CCCN5CCCOCCC(=O)N[C@H](C(=O)N5C[C@H](O)C[C@H]5C(=O)N[C@@H](C)c5ccc(-c6c(F)cccc6F)nc5)C(C)(C)C)nc4c3F)c12 [Example 31, (2S,4R)-1-((2S)-2-(3-(3-((2S)-2-(((4-(3,8-diazabicyclo[3.2.1]octan-3-yl)-7-(8-ethynyl-7-fluoro-3-hydroxynaphthalen-1-yl)-8-fluoropyrido[4,3-d]pyrimidin-2-yl)oxy)methyl)pyrrolidin-1-yl)propoxy)propanamido)-3,3-dimethylbutanoyl)-N—((S)-1-(6-(2,6-difluorophenyl)pyridin-3-yl)ethyl)-4-hydroxypyrrolidine-2-carboxamide] |
| 7.52 | 8.08 | C#Cc1c(F)ccc2cc(O)cc(-c3ncc4c(N5CC6CCC(C5)N6)nc(OC[C@@H]5CCCN5CCCOCCC(=O)N[C@H](C(=O)N5C[C@H](O)C[C@H]5C(=O)N[C@@H](CO)c5ccc(-c6c(F)cccc6F)cc5)C(C)(C)C)nc4c3F)c12 [Example 32, (2S,4R)-1-((2S)-2-(3-(3-((2S)-2-(((4-(3,8-diazabicyclo[3.2.1]octan-3-yl)-7-(8-ethynyl-7-fluoro-3-hydroxynaphthalen-1-yl)-8-fluoropyrido[4,3-d]pyrimidin-2-yl)oxy)methyl)pyrrolidin-1-yl)propoxy)propanamido)-3,3-dimethylbutanoyl)-N—((R)-1-(2′,6′-difluoro-[1,1′-biphenyl]-4-yl)-2-hydroxyethyl)-4-hydroxypyrrolidine-2-carboxamide] |
| 8.52 | 8.13 | C#Cc1c(F)ccc2cc(O)cc(-c3ncc4c(N5CC6CCC(C5)N6)nc(OC[C@@H]5CCCN5CCCOCCC(=O)N[C@H](C(=O)N5C[C@H](O)C[C@H]5C(=O)N[C@@H](C)c5ccc(N6CCC[C@H]6C#N)cc5)C(C)(C)C)nc4c3F)c12 [Example 33, (2S,4R)-1-((2S)-2-(3-(3-((2S)-2-(((4-(3,8-diazabicyclo[3.2.1]octan-3-yl)-7-(8-ethynyl-7-fluoro-3-hydroxynaphthalen-1-yl)-8-fluoropyrido[4,3-d]pyrimidin-2-yl)oxy)methyl)pyrrolidin-1-yl)propoxy)propanamido)-3,3-dimethylbutanoyl)-N—((S)-1-(4-((S)-2-cyanopyrrolidin-1-yl)phenyl)ethyl)-4-hydroxypyrrolidine-2-carboxamide] |
| 7.20 | 8.00 | C#Cc1c(F)ccc2cc(O)cc(-c3ncc4c(N5CC6CCC(C5)N6)nc(OC[C@@H]5CCCN5CCCOCCCC(=O)N[C@H](C(=O)N5C[C@H](O)C[C@H]5C(=O)N[C@@H](C)c5ccc(-c6c(F)cccc6F)cc5)C(C)(C)C)nc4c3F)c12 [Example 34, (2S,4R)-1-((2S)-2-(4-(3-((2S)-2-(((4-(3,8-diazabicyclo[3.2.1]octan-3-yl)-7-(8-ethynyl-7-fluoro-3-hydroxynaphthalen-1-yl)-8-fluoropyrido[4,3-d]pyrimidin-2-yl)oxy)methyl)pyrrolidin-1-yl)propoxy)butanamido)-3,3-dimethylbutanoyl)-N—((S)-1-(2′,6′-difluoro-[1,1′-biphenyl]-4-yl)ethyl)-4-hydroxypyrrolidine-2-carboxamide] |
| 5.97 | 8.01 | C#Cc1c(F)ccc2cc(O)cc(-c3ncc4c(N5CC6CCC(C5)N6)nc(OCCN5CCC6(CC5)CN(c5cc([C@H](C(=O)N7C[C@H](O)C[C@H]7C(=O)N[C@@H](C)c7ccc(-c8c(F)cc(F)cc8F)cc7)C(C)C)on5)C6)nc4c3F)c12 [Example 36, (2S,4R)-1-((2R)-2-(3-(7-(2-((4-(3,8-diazabicyclo[3.2.1]octan-3-yl)-7-(8-ethynyl-7-fluoro-3-hydroxynaphthalen-1-yl)-8-fluoropyrido[4,3-d]pyrimidin-2-yl)oxy)ethyl)-2,7-diazaspiro[3.5]nonan-2-yl)isoxazol-5-yl)-3-methylbutanoyl)-4-hydroxy-N—((S)-1-(2′,4′,6′-trifluoro-[1,1′-biphenyl]-4-yl)ethyl)pyrrolidine-2-carboxamide] |
| 6.56 | 7.71 | C[C@H](NC(=O)[C@@H]1C[C@@H](O)CN1C(=O)[C@@H](NC(=O)CCOCCCN1CCC[C@H]1COc1nc(N2CC3CCC(C2)N3)c2cc(Cl)c(-c3ccc(F)c4sc(N)c(C#N)c34)c(F)c2n1)C(C)(C)C)c1ccc(-c2c(F)cc(F)cc2F)cc1 [Example 37, (2S,4R)-1-((2S)-2-(3-(3-((2S)-2-(((7-(2-amino-3-cyano-7-fluorobenzo[b]thiophen-4-yl)-4-(3,8-diazabicyclo[3.2.1]octan-3-yl)-6-chloro-8-fluoroquinazolin-2-yl)oxy)methyl)pyrrolidin-1-yl)propoxy)propanamido)-3,3-dimethylbutanoyl)-4-hydroxy-N—((S)-1-(2′,4′,6′-trifluoro-[1,1′-biphenyl]-4-yl)ethyl)pyrrolidine-2-carboxamide] |
| 7.58 | 8.05 | C#Cc1c(F)ccc2cc(O)cc(-c3ncc4c(N5CC6CCC(C5)N6)nc(OC[C@@H]5CCCN5CCCOCCC(=O)N[C@H](C(=O)N5C[C@H](O)C[C@H]5C(=O)N[C@@H](C)c5ccc(-c6ccccc6C#N)cc5)C(C)(C)C)nc4c3F)c12 [Example 40, (2S,4R)-1-((2S)-2-(3-(3-((2S)-2-(((4-(3,8-diazabicyclo[3.2.1]octan-3-yl)-7-(8-ethynyl-7-fluoro-3-hydroxynaphthalen-1-yl)-8-fluoropyrido[4,3-d]pyrimidin-2-yl)oxy)methyl)pyrrolidin-1-yl)propoxy)propanamido)-3,3-dimethylbutanoyl)-N-((S)-1-(2′-cyano-[1,1′-biphenyl]-4-yl)ethyl)-4-hydroxypyrrolidine-2-carboxamide] |
